Source: patent US4939133A, “N-substituted-2-hydroxy-α-oxo-benzeneacetamides and pharmaceutical compositions having activity as modulators of the arachidonic acid cascade” (Warner-Lambert Company, priority 1985, dated 1990)

Biological target: T1, 5-lipoxygenase (isolated human leukocytes) (Homo sapiens, UniProt P09917)
T1 construct: 5-Lipoxygenase Assay Using Isolated Human Leukocytes (5LOA2); endogenous in cells; host or cells: isolated human blood leukocytes, platelets removed
T1 sequence (P09917 1-674): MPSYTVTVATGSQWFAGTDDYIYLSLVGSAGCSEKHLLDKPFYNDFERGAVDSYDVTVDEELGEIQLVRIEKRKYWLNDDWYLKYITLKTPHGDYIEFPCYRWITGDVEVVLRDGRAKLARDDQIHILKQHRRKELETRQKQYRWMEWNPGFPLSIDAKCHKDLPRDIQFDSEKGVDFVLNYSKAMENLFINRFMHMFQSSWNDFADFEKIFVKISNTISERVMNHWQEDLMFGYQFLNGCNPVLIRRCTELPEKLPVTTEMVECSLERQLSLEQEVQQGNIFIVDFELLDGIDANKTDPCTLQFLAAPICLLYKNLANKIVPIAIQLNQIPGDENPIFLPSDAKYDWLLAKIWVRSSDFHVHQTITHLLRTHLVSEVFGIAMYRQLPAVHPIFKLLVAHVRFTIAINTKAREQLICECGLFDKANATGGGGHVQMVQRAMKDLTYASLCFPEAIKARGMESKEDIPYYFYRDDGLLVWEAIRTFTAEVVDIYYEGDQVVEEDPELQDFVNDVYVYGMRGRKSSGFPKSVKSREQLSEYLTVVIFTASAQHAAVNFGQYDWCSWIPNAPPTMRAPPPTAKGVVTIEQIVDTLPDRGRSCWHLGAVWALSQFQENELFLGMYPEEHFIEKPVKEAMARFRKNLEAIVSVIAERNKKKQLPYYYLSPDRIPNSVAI
Test: 5-Lipoxygenase Assay Using Isolated Human Leukocytes (5LOA2)
Assay type: cell-based
Conditions: 5LOA2; 50% inhibition of 5-HETE formation; E -number means X 10^-no.; read-out: Concentration giving 50.00 % Inhibition (5LOA2)
Method: 5-Lipoxygenase Assay Using Isolated Human Leukocytes (5LOA2)
The formation of 5-HETE in human leukocytes is considered a measure of 5-lipoxygenase activity. The protocol is described in the following.
Fresh heparinized or EDTA treated human blood is mixed with 6% dextran-3% dextrose in isotonic saline in the ratio 0.25 ml dextran solution per 1.0 ml blood. After mixing the blood is allowed to sit at room temperature for about 90 minutes while the RBC's settle. During this period, the plasma is removed with a plastic pipette to nalgens tubes.
The plasma is centrifuged at 800 rpm ([…]) on the Beckman Td-b refrigerated centrifuge to remove the platelets (which remain in the supernatant). The pellet, consisting of leukocytes and erythrocytes, is treated with 10 ml 0.87% ammonium chloride at room temperature for four minutes, lysing the red cells. At the end of four minutes the cells are diluted with a 2×volume of phosphate buffered saline, pH 7.4, and centrifuged for ten minutes. The cells are washed three times with the phosphate buffered saline. Any of the pelleted cell matter which is not easily resuspended is discarded during the washings --the material contains platelets (12-lipoxygenase activity).
After washing, the cells are resuspended in phosphate buffered saline containing 1.0 mM calcium and 0.5 mM magnesium. After counting the cells are diluted to 1.5-2.0×10^7 leukocytes per milliliter.
To each polypropylene reaction tube is added 0.48 ml leukocytes in Ca-Mg phosphate buffered saline, pH 7.4; 1-5 μl test compound dissolved in DMSO and buffer; or DMSO for control tubes.
The tubes preincubate at 37° C. for five minutes. […]
A portion of the ethanol solution is injected into the HPLC system for 5-HETE quantitation.
The HPLC system consists of Hewlett-Packard 1040A UV spectrophotometry system with an HP85 computer. […] Peaks are measured with a Hewlett Packard 3360A integrator. […] The flow is monitored at 235 nm for 5-HETE quatitation. […]

- IC50: 1.69 µM
Compound: COc1ccc(CCc2ccc(NC(=O)c3ccc(C)cc3O)cc2)cc1OC [Example 46, N-[4-[2-(3,4-Dimethoxyphenyl)ethyl]phenyl]-2-hydroxy-4-methylbenzamide]
